Assay results taken from patent US5821046A, “RNA oligonucleotides that bind HIV tat protein” (RiboTargets Holdings PLC, priority 1990, dated 1998).
“Also recorded” adds a separate entry of the source. Read-outs that look alike come from different tables or passages of the source.

Tests used:
HIV-1 tat protein [1] = format: binding; conditions: 32P-labeled RNA transcript, 0 to 600 ng tat
Method: i) Gel retardation assays (FIG. 6) Method RNA transcripts were prepared by transcription with either T3 or T7 RNA polymerases of TAR regions residues +1 to +57, cloned between the HindIII and EcoRI sites of the Bluescribe M13+expression vector (Stratagene). RNA transcripts corresponding to HIV-1 TAR [SEQ ID NO: 1], SSA [SEQ ID NO: 3], SAA and SAS [SEQ ID NO: 5] were synthesized from clones linearized with EcoRI and transcribed with T3 RNA polymerase. RNA transcripts corresponding to the antisense HIV-1 TAR […], AAS , ASS [SEQ ID NO: 4], and ASA (not shown) sequences were prepared from the same plasmids linearized with HindIII and transcribed using T7 RNA polymerase. All other RNA molecules were synthesized using T3 RNA polymerase following EcoRI cleavage of the plasmid vector. The RNA products each carry 13 nucleotides of vector sequence at their 5' end and four nucleotides at their 3' ends. […] Transcription mixtures contained 1 ug linearized plasmid, 40 mM Tris-HCl pH 8.0, 10 mM MgCl 2, 2 mM Spermidine-HCl, 50 mM NaCl, 100 uM each ribonucleotide triphosphate, 40 uCi (alpha-^32 P) UTP (410 Ci/m mol) and 10 units of RNA polymerase in a final volume of 30 ul and were incubated at 37° C. for 30 minutes. After phenol extraction and precipitation from ethanol the RNA was purified from a 9% polyacrylamide denaturing gel. The specific activity of the RNA product was determined and appropriate amounts were used in binding assays. Binding reaction mixtures (1 5ul) contained 1 ng of uniformly labeled RNA probe, 0.5 ug calf thymus DNA, 0.2 ug yeast TRNA, 40 units RNAsin (Promega), 50 mM Tris-HCl and 20 mM KCl and 0 to 600 ng tat protein, prepared from E. coli beta-galactosidase-tat fusion proteins, as described previously (6). After incubation at either 30° C. or 4° C. for 10-20 minutes, the reaction mixtures were applied to a 6% non-denaturing polyacrylamide gel (Acrylamide: Bis, 40:0.5) in 3.3 mM sodium acetate, 6.7 mM Tris (adjusted to pH 7.9 with HCl). The gel buffer was recirculated during electrophoresis at 35 mA for approximately 2 hours at room temperature. Gels were dried and exposed to X-ray film at -80° C. using intensifying screens.

HIV-1 tat protein [2] = test: competition filter binding assay, mutant TAR transcripts against labelled HIV-1 TAR RNA (FIG. 7, Table 1); conditions: 20 nM TAR RNA, 40 nM tat protein; for IC50: read-out: D1/2 (concentration of competitor RNA that reduces binding of HIV-1 tat to HIV-1 TAR RNA to 50%)
Method: Binding reactions (500 ul) were set up on ice and contained 80 pM ^32 P-labeled TAR RNA (17,600 dpm, 200 uCi/n mol) and unlabeled TAR RNA to give a final concentration of 20 nM, 0.5 ug calf thymus DNA, 0.2 ug yeast tRNA, 40 units RNAsin (Promega), 50 mM Tris HCl and 20 mM KCl. After addition of competitor RNA, binding was initiated by addition of HIV-1 tat protein to a final concentration of 400 ng/ml (40 nM). The binding reaction mixtures were then filtered under reduced pressure through pre-washed nitrocellulose filters (Millipore 0.45 uM pore size) and filters were dried and counted by liquid scintillation counting.
The fraction of^32 P-labeled TAR RNA bound was plotted against the final concentration of competitor RNA. In these experiments reactions included 20 nM TAR and 40 nM tat protein and increasing amounts of unlabeled competitor RNA from 40 nm to 6 uM. […] In theory, 40 nM tat will bind 50% of the input TAR RNA (D1/2) when the total TAR RNA concentration is 56 nM.
For competition experiments, binding reactions (500 ul) were set up on ice and contained 80 pM ^32 P-labeled TAR RNA (17,600 dpm, 200 uCi/n mol) and unlabeled TAR RNA to give a final concentration of 20 nM, 0.5 ug calf thymus DNA, 0.2 ug yeast TRNA, 40 units RNAsin (Promega), 50 mM Tris-HCl pH 7.9 and 20 mM KCl. After addition of 0 to 6 uM competitor RNA, binding was initiated by addition of HIV- 1 tat protein to a final concentration of 400 ng/mi (40 nM). The binding reaction mixtures were then filtered under reduced pressure through pre-washed nitrocellulose filters (Millipore 0.45 u pore size) and filters were dried and counted by liquid scintillation counting.
KRel is the ratio of the D1/2 values for HIV-1 TAR and competitor RNA.

tat protein = test: competition filter binding assay with chemically synthesized RNA (Table 4); parameters: species or system HIV-1; conditions: for IC50: 40 nM tat, read-out: D1/2
Method: Competition binding reactions (0.5ml) in TK buffer (50 mM Tris.HCl(pH7.9 at 0.5M and 22° G), 20 mM KCl ) included 10nM ^32 p labeled 59-mer (ca. 20,000 cpm) , 40nM tat protein, 5 ug/ml calf thymus DNA, 2 ug/ml yeast tRNA, 40 units of RNAsin (Promega) and varying concentrations (0-300 nM) of unlabeled competitor RNA (59-mer [SEQ ID NO: 1; ], 29-mer [SEQ ID NO: 12] or preannealed (slow cooled from 90° C.) 14-mer [SEQ ID NO: 14; nucleotides 2-15] and 17-mer [SEQ ID NO: 13; nucleotides 1- 17]). Binding was allowed to take place for 2-15 minutes on ice and each reaction was filtered through a twice prewashed (0.6 ml of ice-cold TK buffer) Millipore GS filter (2.5 cm disks, 0.22 um pore) and the filter washed with TK buffer (0.6 ml). Dried filters were counted by liquid scintillation. Results were plotted on a graph (FIG. 19) showing counts retained on the filter versus the concentration of competitor RNA added.
Competition binding reactions (0.5 ml) in TK buffer included 10 nM duplex formed from ^32 P-labeled and unlabeled 29-mer (ca. 20,000 cpm) or 10 nM duplex formed from ^32 P-labeled and unlabeled 17-mer annealed to unlabeled 14-mer, 40 nM tat protein, 5 ug/ml calf thymus DNA, 2 ug/ml yeast tRNA and varying concentrations (0-120 nM) of unlabeled competitor RNA (29-mer or modified 29-mer (FIG. 21), or 17-mer +14-mer duplex or modified 7-mer +14-mer duplex (22, 23 and 24) and were carried out as described above.
Competition binding reactions (0-5 ml) in TK buffer included 10 nM duplex formed from ^32 P-labelled (ca. 20,000 cpm) and unlabelled 18-mer [SEQ ID NO: 13] annealed to unlabelled 15-mer [SEQ ID NO: 14], 40 nM tat protein, 5 ug/ml calf thymus DNA, 2 ug/ml yeast TRNA and varying concentrations (0-120 nM) of unlabelled competitor RNA (59-mer [SEQ ID NO: 1] or 18-mer [SEQ ID NO: 13]+15-mer [SEQ ID NO: 14] duplex, or modified 18-mer [SEQ ID NO: […]

Row | Substance | complex formation with tat in gel retardation assay (HIV-1 tat protein [1]) | KRel (ratio of D1/2 values for HIV-1 TAR and competitor RNA) (HIV-1 tat protein [2]) | IC50 (HIV-1 tat protein [2]) | further results
1 | ASS: anti-sense lower stem, sense upper stem and loop sequences (GGGUUCCCUAGUUAGACCAGAUUUGAGCCUGGGAGCUCUCUGGCUAACCAGAGAGACCC; chemistry not given here) | discrete complex formation | – | – | –
2 | SAS: anti-sense upper stem flanked by sense lower stem and loop sequences (GGGUCUCUCUGGUUAGCCAGAGAGCCUGGGAGCUCAAAUCUGGUCUAACUAGGGAACCC; chemistry not given here) | No complexes were formed; also recorded: fail to form complexes | – | – | –
3 | SSA: sense stem, antisense loop sequence (GGGUCUCUCUGGUUAGACCAGAUUUGAGCUCCCAGGCUCUCUGGCUAACUAGGGAACCC; chemistry not given here) | discrete complex formation | – | – | –
4 | HIV-1 TAR (UUU): full length HIV-1 TAR RNA of 59 residues prepared by transcription, wild type, UUU bulge (GGGUCUCUCUGGUUAGACCAGAUUUGAGCCUGGGAGCUCUCUGGCUAACUAGGGAACCC; unmodified RNA) [reference compound] | discrete complex formation | 1.00 | 0.064 µM | Krel (59-mer) (tat protein; 32P-end labelled 18-mer annealed to 15-mer): 1.0; IC50 (tat protein; 32P-end labelled 18-mer annealed to 15-mer 10 nM, competitor 0-120 nM): 0.018 µM; Krel (59-mer) (tat protein; 32P-labeled 59-mer transcript 10 nM): 1.0; IC50 (tat protein; 32P-labeled 59-mer transcript 10 nM, competitor 0-300 nM): 0.04 µM; Krel (29 or 14 +17) (tat protein; relative to 14 +17 duplex, 32P-end labelled 18-mer annealed to 15-mer): 2.8
5 | delta U (bulge): TAR RNA in which residues 23-25 are deleted (GGGUCUCUCUGGUUAGACCAGAGAGCCUGGGAGCUCUCUGGCUAACUAGGGAACCC; RNA, backbone not given here) | – | 0.15 | 0.42 µM | IC50 (HIV-1 tat protein [2]; listed as SEQ ID NO: 8): 0.29 µM; complex formation with tat in gel retardation assay (HIV-1 tat protein [1]; listed as SEQ ID NO: 8): abolished tat binding; complex formation with tat in gel retardation assay (HIV-1 tat protein [1]; listed as delta U3 (bulge)): No complexes were formed
6 | G28 to C28: TAR point mutation expected to disrupt the top of the TAR stem/loop structure (GGGUCUCUCUGGUUAGACCAGAUUUGACCCUGGGAGCUCUCUGGCUAACUAGGGAACCC; chemistry not given here) | failed to bind to tat | 0.09 | 0.68 µM | –
7 | G to U (loop): TAR RNA in which residues 32-34 are changed to uridine (U) (GGGUCUCUCUGGUUAGACCAGAUUUGAGCCUUUUAGCUCUCUGGCUAACUAGGGAACCC; RNA, backbone not given here) | discrete complex formation | 0.97 | 0.066 µM | –
